Assay results reported in patent publication US12630594B2, “Allergy antigen and epitope for same” (HOYU CO., LTD., priority 2017, dated 2026).

What was measured:
[1] = system: IgE antibody present in the serum of a fish-allergic patient; assay: Epitope mapping (1): peptide array of overlapping 15-amino-acid peptides; type: binding, human; details: average of 5 patients / average of 4 non-fish-allergic subjects at least 1.5, Mann-Whitney U test
Procedure: Epitope mapping was carried out using a library of overlapping peptides (length: 15 amino acids) corresponding to the amino acid sequences identified as allergy components of fish and the amino acid sequences of known fish allergy antigens aldolase, β-enolase, and glyceraldehyde-3-phosphate dehydrogenase (Non Patent Literature 2-4). Specifically, the library of overlapping peptides was prepared on the basis of the amino acid sequences of SEQ ID NO: 2 for alpha-actinin-3, SEQ ID NO: 5 for EEF1A2 binding protein-like, SEQ ID NO: 10 for alpha-1,4-glucan phosphorylase, SEQ ID NO: 19 for elongation factor 2, SEQ ID NO: 26 for heat shock cognate 70 kDa protein, SEQ ID NO: 33 for serotransferrin, SEQ ID NO: 43 for myosin binding protein H-like, SEQ ID NO: 56 for desmin (fragment), SEQ ID NO: 61 for capping protein (actin filament) muscle Z-line beta, SEQ ID NO: 70 for myosin heavy chain, fast skeletal muscle-like, SEQ ID NO: 110 for glycogen phosphorylase, muscle form-like, SEQ ID NO: 121 for myosin-binding protein C, fast-type-like, SEQ ID NO: 138 for ATP synthase subunit beta, mitochondrial, SEQ ID NO: 144 for L-lactate dehydrogenase A chain-like, SEQ ID NO: 445 for aldolase, SEQ ID NO: 446 for β-enolase, and SEQ ID NO: 447 for glyceraldehyde-3-phosphate dehydrogenase.
The peptides to be synthesized were shifted by 10 amino acids.
For preparation of peptide arrays, the Intavis CelluSpots™ technique was used. Specifically, the peptide arrays were prepared by the following procedure: (1) synthesizing peptides of interest on amino-modified cellulose disks using an automated chemical synthesis apparatus (Intavis MultiPep RS), (2) dissolving the amino-modified cellulose disks to obtain a cellulose-bound peptide solution, and (3) spotting the cellulose-bound peptides onto coated glass slides. The details of each procedure are as described below.
The presence or absence of binding, to each peptide fragment, of an IgE antibody present in the serum of a fish-allergic patient was measured through antigen-antibody reaction using the peptide arrays. The measurement was carried out according to the following procedure. • (1) The peptides were shaken at room temperature for 1 hour in PBST. • (2) The peptide arrays were shaken at overnight at room temperature in 5% serum/PBST. • (3) The peptide arrays were washed with a PBST solution (a PBS buffer containing 0.1% Tween 20 nonionic surfactant) for 5 minutes (×3). • (4) Anti-human IgE antibody-HRP(1:5,000, PBST) was added thereto, and the peptide arrays were shaken at room temperature for 1 hour. • (5) The peptide arrays were washed with a PBST solution for 5 minutes (×3). • (6) Pierce ECL Plus Western Blotting Substrate (produced by Thermo Fisher Scientific) was added thereto, and the peptide arrays were shaken at room temperature for 5 minutes. • (7) The chemiluminescence of the peptides treated as described above in (1) to • (6) was measured using Amersham Imager 600.
Chemiluminescence intensity in images obtained by the measurement described above in (7) was converted into a numeric value using ImageQuant TL (GE Healthcare). The average value of numeric values determined from images obtained from results about the serum of 5 patients was divided by the average value of numeric values determined from images obtained from results about the serum of 4 non-fish-allergic subjects. It was determined that a peptide having a calculated value (average value of the patient group/average value of the non-fish-allergic subject group) of at least 1.5 and a significant difference of […] in the Mann-Whitney U test was a peptide bound to an IgE antibody in a patient-specific manner.

[2] = system: IgE antibodies from patients; assay: Epitope mapping (2): overlapping 10-amino-acid peptide fragments shifted by one amino acid; type: binding, human; details: positions numbered within the 15-amino-acid epitope; serum of 5 patients
From the text: On the basis of the sequences (SEQ ID NOs: 150-154 for alpha-actinin-3, SEQ ID NO: 155 for EEF1A2 binding protein-like, SEQ ID NOs: 156 and 157 for alpha-1,4-glucan phosphorylase, SEQ ID NOs: 158 and 159 for elongation factor 2, SEQ ID NOs: 160-162 for heat shock cognate 70 kDa protein, SEQ ID NOs: 163-167 for serotransferrin, SEQ ID NOs: 168-171 for myosin binding protein H-like, SEQ ID NOs: 172-174 for desmin (fragment), SEQ ID NOs: 175-178 for capping protein (actin filament) muscle Z-line beta, SEQ ID NOs: 179-185 for myosin heavy chain, fast skeletal muscle-like, SEQ ID NO: 186 for glycogen phosphorylase, muscle form-like, SEQ ID NOs: 187-196 for myosin-binding protein C, fast-type-like, SEQ ID NO: 197 for ATP synthase subunit beta, mitochondrial, SEQ ID NO: 198 for L-lactate dehydrogenase A chain-like, SEQ ID NO: 199 for aldolase, SEQ ID NOs: 200-202 for β-enolase, and SEQ ID NOs: 203 and 204 for glyceraldehyde-3-phosphate dehydrogenase) of the peptides bound to an IgE antibody in serum in a patient-specific manner as described above in (A), a library of overlapping peptide fragments (length: 10 amino acids) was prepared using the sequences of the peptides and sequences in which sequences were added so as to flank each peptide in the amino acid sequences of allergen components (SEQ ID NO: 2 for alpha-actinin-3, SEQ ID NO: 5 for EEF1A2 binding protein-like, SEQ ID NO: 10 for alpha-1,4-glucan phosphorylase, SEQ ID NO: 19 for elongation factor 2, SEQ ID NO: 26 for heat shock cognate 70 kDa protein, SEQ ID NO: 33 for serotransferrin, SEQ ID NO: 43 for myosin binding protein H-like, SEQ ID NO: 56 for desmin (fragment), SEQ ID NO: 61 for capping protein (actin filament) muscle Z-line beta, SEQ ID NO: 70 for myosin heavy chain, fast skeletal muscle-like, SEQ ID NO: 110 for glycogen phosphorylase, muscle form-like, SEQ ID NO: 121 for myosin-binding protein C, fast-type-like, SEQ ID NO: 138 for ATP synthase subunit beta, mitochondrial, SEQ ID NO: 144 for L-lactate dehydrogenase A chain-like, SEQ ID NO: 445 for aldolase, SEQ ID NO: 446 for β-enolase, and SEQ ID NO: 447 for glyceraldehyde-3-phosphate dehydrogenase) comprising the sequences of the peptide. Epitope mapping was carried out using the library.
The peptides to be synthesized were shifted by one amino acid.
The library was prepared by the same procedure as described above in (A), and the presence or absence of binding of an IgE antibody present in the serum of a patient and a non-fish-allergic subject to each peptide fragment was measured by the same technique as described above. Amino acids at positions where the binding activity against IgE antibodies from patients were lost or decreased in the peptides shifted by one amino acid while binding activity against IgE antibodies from non-fish-allergic subjects arose were confirmed as amino acids adversely affecting the specificity of binding to IgE antibodies.
Chemiluminescence intensity in images obtained by measurement was converted into a numeric value in the same manner as in (A) using ImageQuant TL (GE Healthcare). […]

[3] = system: IgE antibodies from patients; assay: Epitope mapping (3): alanine scanning; design: species or system human; details: positions numbered within the region important for binding; no influence on IgE binding when substituted by alanine
Procedure: From the amino acid sequences identified above in (A), a library of peptide fragments in which N-terminal amino acids were substituted one by one by alanine according to a technique called alanine scanning (Non Patent Literature 5) was prepared by the same technique as described above. The presence or absence of binding of an IgE antibody present in the serum of a patient and a non-fish-allergic subject to each peptide fragment was measured by the same technique as described above. Amino acids at positions where the binding activity against IgE antibodies from patients were lost or decreased by the substitution by alanine while binding activity against IgE antibodies from non-fish-allergic subjects arose were confirmed as amino acids important for exertion of original antigenicity, or amino acids influencing exertion of original antigenicity.
Chemiluminescence intensity in images obtained by measurement was converted into a numeric value in the same manner as in (A) using ImageQuant TL (GE Healthcare). When values obtained using the sequences (SEQ ID NOs: 150-204) that were of the peptides confirmed to bind to an IgE antibody in a patient specific manner from the images obtained from results about the serum of 5 patients and served as the basis of overlapping were defined as 100%, it was determined that: a peptide having a value of less than 20% had no binding activity against IgE antibodies; a peptide having a value of 20% or more and less than 50% had binding activity, albeit poor, against IgE antibodies; a peptide having a value of 50% or more and less than 70% had binding activity, albeit somewhat poor, against IgE antibodies; a peptide having a value of 70% or more and less than 90% had equivalent binding activity against IgE antibodies; and a peptide having a value of 90% or more had almost equivalent or good binding activity against IgE antibodies and was thus a peptide had remaining binding activity against IgE antibodies.
By this analysis, common sequences important for exertion of original antigenicity were found in regions important for binding to IgE antibodies from patients, in the sequences serving as the basis of overlapping.

[4] = system: IgE antibody in the serum of a fish-allergic patient; assay: Immunoblotting of two-dimensional electrophoresis patterns of fish meat proteins with patient serum; type: binding, human
Procedure: Proteins contained in fish were analyzed by the aforementioned technique to identify antigens of an allergy to fish. To be specific, proteins were extracted from fish meat and subjected to two-dimensional electrophoresis under the conditions described below.
The electrophoresis in the first dimension was isoelectric focusing, which was performed using isoelectric focusing gels with a gel-strip length of 5 to 10 cm and a gel pH range of 3 to 10. The pH gradient of the gels in the direction of electrophoresis was as follows: with the total gel-strip length being taken as 1, the gel-strip length up to pH 5 was “a=0.15 to 0.3”, the gel-strip length from pH 5 to 7 was “b=0.4 to 0.7”, and the gel-strip length above pH 7 was “c=0.15 to 0.3”. More specifically, the isoelectric focusing was performed using the IPG gels, Immobiline Drystrip (pH3-10NL), produced by GE Healthcare Bio-Sciences Corporation (hereinafter abbreviated as “GE”). The electrophoresis system used was IPGphor produced by GE. The maximum current of the electrophoresis system was limited to 75 μA per gel strip. The voltage program adopted to perform the first-dimensional isoelectric focusing was as follows: (1) a constant voltage step was performed at a constant voltage of 300 V until the volt-hours reached 750 Vhr (the current variation width during electrophoresis for 30 minutes before the end of this step was 5 μA); (2) the voltage was increased gradually to 1000 V for 300 Vhr; (3) the voltage was further increased gradually to 5000 V for 4500 Vhr; and then (4) the voltage was held at a constant voltage of 5000 V until the total Vhr reached 12000.
The electrophoresis in the second dimension was SDS-PAGE, which was performed using polyacrylamide gels whose gel concentration at the distal end in the direction of electrophoresis was set to 3 to 6% and whose gel concentration at the proximal end was set to a higher value than that at the distal end. More specifically, the SDS-PAGE was performed using NuPAGE 4-12% Bris-Tris Gels (IPG well, Mini, 1 mm) produced by Life Technologies. The electrophoresis system used was XCell SureLock Mini-Cell produced by Life Technologies. The electrophoresis was run at a constant voltage of 200 V for about 45 minutes using an electrophoresis buffer composed of 50 mM MOPS, 50 mM Tris base, 0.1% (w/v) SDS and 1 mM EDTA.
Identification of antigens by immunoblotting was carried out by taking all the steps up to the step of “Second-dimensional SDS-PAGE” as described above in Example 1, followed by the steps of “Transfer to membrane”, “Immunoblotting” and “Analysis” as described below.
To be specific, proteins in the second-dimensional electrophoresis gels were transferred to a membrane (PVDF membrane) according to the following procedure. • (1) The PVDF membrane was immersed in 100% methanol followed by milliQ water, and then moved into the transfer buffer to hydrophilize the PVDF membrane. • (2) After sponge, filter paper, the second-dimensional electrophoresis gels treated by second-dimensional SDS-PAGE, the hydrophilized PVDF membrane, filter paper, and sponge were put in place in this order, the transfer system was energized at a constant voltage of 30 V for one hour. Immunoblotting
Immunoblotting of the membrane was carried out using, as a primary antibody, a serum sample from patient 1 with a fish allergy or a serum sample from a non-fish-allergic subject. This fish-allergic patient 1 was a patient diagnosed with immediate-type allergy to fish. […]

| Substance | IgE antibody binding in a patient-specific manner [1] | Positions of amino acids of region important for binding in epitope [2] | specific binding to IgE antibodies from fish-allergic patients ([4]; spots in two-dimensional electrophoresis gel of proteins in fish, patients diagnosed with immediate-type allergy) | Non-binding-influencing amino acid in region important for binding [3] | spots detected by immunoblotting, different from spots with serum of non-fish-allergic subject ([4]; proteins contained in salmon meat, serum from fish-allergic patient 3 (FIG. 1B right)) |
| --- | --- | --- | --- | --- | --- |
| 8 (DRFKVFADYEAYIKS; epitope) [compound 8] | bind in a patient-specific manner | 2-9 |  |  |  |
| 37 (GGYIQAVLDRNLCEN; epitope) [compound 37] | bind in a patient-specific manner |  |  | 3 |  |
| 54 (YMVYMFKYDSTHGRF; epitope) [compound 54] | bind in a patient-specific manner | 1-15 |  |  |  |
| 55 (PASYDAIKKVVKAAA; epitope) [compound 55] | bind in a patient-specific manner |  |  | 5 |  |

Second part, led by results:

| IgE antibody binding in a patient-specific manner [1] | Positions of amino acids of region important for binding in epitope [2] | specific binding to IgE antibodies from fish-allergic patients ([4]; spots in two-dimensional electrophoresis gel of proteins in fish, patients diagnosed with immediate-type allergy) | Substance | Non-binding-influencing amino acid in region important for binding [3] | spots detected by immunoblotting, different from spots with serum of non-fish-allergic subject ([4]; proteins contained in salmon meat, serum from fish-allergic patient 3 (FIG. 1B right)) |
| --- | --- | --- | --- | --- | --- |
| bind in a patient-specific manner | 1-11 |  | 6 (LDNRLYYMVAEHDSS; epitope) [compound 6] | 8 |  |
| bind in a patient-specific manner | 5-13 |  | 49 (VLAGEPVGSRSKVTV; epitope) [compound 49] | 6 |  |
| bind in a patient-specific manner |  |  | 50 (SYGRALQASALKAWG; epitope) [compound 50] |  |  |
|  |  | specific binding to IgE antibodies | ATP synthase subunit beta, mitochondrial [Spot 13] |  | newly detected |
